Here are results for 16 molecules from ChEMBL document CHEMBL3044545, “Synthesis and evaluation of antioxidant and antimicrobial properties of thymol containing pyridone moieties” (2012).

Common to all, as to assay type: functional
Assay [1] relates to Talaromyces marneffei. The assay is described as follows: Antimicrobial activity against Talaromyces marneffei at 100 ppm after 48 hr by agar well diffusion method. As to conditions: read-out: IZ. On the technique in general: In agar diffusion tests the substance spreads into inoculated agar from a disc or well.
Assay [2] relates to Aspergillus niger. Put plainly: Antimicrobial activity against Aspergillus niger at 100 ppm after 48 hr by agar well diffusion method. As to conditions: read-out: IZ.
Assay [3] has as its system Staphylococcus aureus. The assay is described as follows: Antimicrobial activity against Staphylococcus aureus at 100 ppm after 48 hr by agar well diffusion method. As to conditions: read-out: IZ.
Assay [4] is described as follows: Antioxidant activity assessed as inhibition of NBT reduction at 100 ug/ml.
Assay [5] deals with Escherichia coli. Put plainly: Antimicrobial activity against Escherichia coli at 100 ppm after 48 hr by agar well diffusion method. The conditions noted are these: read-out: IZ.
Assay [6] in a line: Antioxidant activity assessed as inhibition of NBT reduction at 80 ug/ml.
The nature of assay [7]: Antioxidant activity assessed as inhibition of NBT reduction at 40 ug/ml.
Assay [8] can be described thus: Antioxidant activity assessed as inhibition of NBT reduction at 60 ug/ml.
A short description of assay [9]: Antioxidant activity assessed as inhibition of NBT reduction at 20 ug/ml.
The test system of assay [10] is Staphylococcus aureus. Put plainly: Antimicrobial activity against Staphylococcus aureus at 100 ug/ml after 48 hr by agar well diffusion method. The conditions noted are these: read-out: IZ.
Assay [11] relates to Escherichia coli. The assay is described as follows: Antimicrobial activity against Escherichia coli at 100 ug/ml after 48 hr by agar well diffusion method. As to conditions: read-out: IZ.
Assay [12] deals with Talaromyces marneffei. The assay is described as follows: Antimicrobial activity against Talaromyces marneffei at 100 ug/ml after 48 hr by agar well diffusion method. The conditions noted are these: read-out: IZ.
Assay [13] deals with Aspergillus niger. The assay is described as follows: Antimicrobial activity against Aspergillus niger at 100 ug/ml after 48 hr by agar well diffusion method. As to conditions: read-out: IZ.

In general, inhibition refers to the share of the control response that was lost under treatment. Regarding `COc1ccc(-c2cc(-c3cc(C(C)C)c(O)cc3C)[nH]c(=O)c2C#N)cc1OC`, the zone of inhibition at 100 ppm in the assay with Talaromyces marneffei [1] worked out at 10 mm; in the assay on Aspergillus niger [2], 9 mm; with Staphylococcus aureus [3] it was 13 mm; in the assay with Escherichia coli [5] it was 13 mm. Also, the inhibition in [4] was determined as 61%; in [6], 58%; in assay [7] it was 44%; in assay [8], 52%; in assay [9], 25%.

With `COc1cc(-c2cc(-c3cc(C(C)C)c(O)cc3C)[nH]c(=O)c2C#N)cc(OC)c1OC`, the zone of inhibition at 100 ppm in the assay on Staphylococcus aureus [3] was 10 mm; with Escherichia coli [5], 11 mm. The inhibition stood at 84.5% in [4]; 82% in [6]; 55% in assay [7]; 71% in assay [8]; 35% in [9].

Turning to `COc1cccc(-c2cc(-c3cc(C(C)C)c(O)cc3C)[nH]c(=O)c2C#N)c1`, the zone of inhibition at 100 ppm with Talaromyces marneffei [1] stood at 11 mm; in the assay with Aspergillus niger [2], 11 mm; with Staphylococcus aureus [3], 13 mm; in the assay with Escherichia coli [5], 14 mm. In addition, the inhibition in [4] is 49%; in assay [6], 43%; in assay [7], 30%; in assay [8], 38%; in [9], 22%.

In the case of `Cc1onc(-c2ccccc2Cl)c1C(=O)N[C@@H]1C(=O)N2[C@@H]1SC(C)(C)[C@@H]2C(=O)O` [CLOXACILLIN], the zone of inhibition at 100 µg/mL in the assay on Staphylococcus aureus [10] was found to be 18 mm; with Escherichia coli [11] it was 17 mm.

Regarding `OC(Cn1cncn1)(Cn1cncn1)c1ccc(F)cc1F` [FLUCONAZOLE], the zone of inhibition at 100 µg/mL with Talaromyces marneffei [12] worked out at 17 mm; with Aspergillus niger [13], 16 mm.

In the case of `COc1ccc(-c2cc(-c3cc(C(C)C)c(O)cc3C)[nH]c(=O)c2C#N)c(OC)c1`, the zone of inhibition at 100 ppm in the assay with Talaromyces marneffei [1] came to 10 mm; in the assay on Aspergillus niger [2], 10 mm; with Staphylococcus aureus [3], 14 mm; in the assay on Escherichia coli [5], 13 mm. In addition, the inhibition in assay [4] is 58%; in assay [6] it was 55%; in assay [7] it was 37.5%; in assay [8], 48.5%; in [9], 27%.

For the molecule `Cc1cc(O)c(C(C)C)cc1-c1cc(-c2ccccc2)c(C#N)c(=O)[nH]1`, the zone of inhibition at 100 ppm in the assay with Talaromyces marneffei [1] was 9 mm; with Aspergillus niger [2], 9 mm; with Staphylococcus aureus [3] it was 11 mm; in the assay on Escherichia coli [5], 10 mm. Moreover, the inhibition in [4] was found to be 41%; in assay [6] it was 58%; in [7], 29%; in assay [8], 34%; in assay [9], 22%.

On to `COc1ccc(-c2cc(-c3cc(C(C)C)c(O)cc3C)[nH]c(=O)c2C#N)cc1`, for which the zone of inhibition at 100 ppm with Talaromyces marneffei [1] turned out to be 10 mm; in the assay with Aspergillus niger [2], 10 mm; in the assay with Staphylococcus aureus [3] it was 13 mm; in the assay with Escherichia coli [5] it was 14 mm. Also, the inhibition in [4] stood at 54%; in assay [6], 47.5%; in assay [7], 35%; in assay [8] it was 43%; in [9], 24%.

On to `COc1cc(OC)c(-c2cc(-c3cc(C(C)C)c(O)cc3C)[nH]c(=O)c2C#N)c(OC)c1`, for which the zone of inhibition at 100 ppm in the assay on Staphylococcus aureus [3] turned out to be 11 mm; in the assay on Escherichia coli [5], 10 mm. Also, the inhibition is 82.5% in assay [4]; 79% in assay [6]; 52.6% in assay [7]; 66% in [8]; 32% in [9].

In the case of `Cc1cc(O)c(C(C)C)cc1-c1cc(-c2ccccc2[N+](=O)[O-])c(C#N)c(=O)[nH]1`, the zone of inhibition at 100 ppm in the assay on Talaromyces marneffei [1] was determined as 11 mm; in the assay on Aspergillus niger [2] it was 12 mm; with Staphylococcus aureus [3] it was 13 mm; with Escherichia coli [5], 14 mm. For the same molecule, the inhibition amounted to 37.5% in [4]; 35% in [6]; 25.5% in assay [7]; 31% in [8]; 20% in assay [9].

As for `Cc1cc(O)c(C(C)C)cc1-c1cc(-c2ccccc2Cl)c(C#N)c(=O)[nH]1`, the zone of inhibition at 100 ppm in the assay with Talaromyces marneffei [1] was 12 mm; in the assay on Aspergillus niger [2], 11 mm; in the assay on Staphylococcus aureus [3] it was 14 mm; in the assay on Escherichia coli [5], 15 mm. Moreover, the inhibition amounted to 34% in assay [4]; 32% in [6]; 20% in [7]; 26% in assay [8]; 12% in [9].

On to `Cc1ccc(C(C)C)c(O)c1` [THYMOL], for which the zone of inhibition at 100 ppm in the assay with Talaromyces marneffei [1] was 7 mm; in the assay with Aspergillus niger [2], 8 mm; in the assay with Staphylococcus aureus [3], 9 mm; with Escherichia coli [5], 8 mm. Moreover, the inhibition was determined as 31% in [4]; 27.5% in [6]; 16% in assay [7]; 22.5% in [8]; 10% in assay [9].

For `Cc1cc(O)c(C(C)C)cc1-c1cc(-c2cccs2)c(C#N)c(=O)[nH]1`, the zone of inhibition at 100 ppm in the assay with Talaromyces marneffei [1] was found to be 11 mm; with Aspergillus niger [2] it was 10 mm; in the assay with Staphylococcus aureus [3], 14 mm; in the assay with Escherichia coli [5], 13 mm. Also, the inhibition turned out to be 68% in [4]; 63% in assay [6]; 41% in assay [7]; 54.3% in assay [8]; 26% in assay [9].

`COc1cc(-c2cc(-c3cc(C(C)C)c(O)cc3C)[nH]c(=O)c2C#N)ccc1O`: the zone of inhibition at 100 ppm in the assay with Talaromyces marneffei [1] came out at 11 mm; in the assay on Aspergillus niger [2] it was 11 mm; in the assay on Staphylococcus aureus [3], 15 mm; in the assay with Escherichia coli [5], 14 mm. Moreover, the inhibition in assay [4] was 44%; in assay [6], 42%; in assay [7], 32%; in [8] it was 37.5%; in assay [9], 26%.

Regarding `Cc1cc(O)c(C(C)C)cc1-c1cc(-c2ccc(N(C)C)cc2)c(C#N)c(=O)[nH]1`, the zone of inhibition at 100 ppm is 13 mm with Talaromyces marneffei [1], 14 mm in the assay with Aspergillus niger [2], 14 mm with Staphylococcus aureus [3] and 14 mm in the assay on Escherichia coli [5]. Further, the inhibition in assay [4] is 68%; in assay [6], 66.5%; in [7], 43%; in [8], 53%; in [9] it was 30%.

For the molecule `Cc1cc(O)c(C(C)C)cc1-c1cc(-c2ccco2)c(C#N)c(=O)[nH]1`, the zone of inhibition at 100 ppm with Talaromyces marneffei [1] was found to be 9 mm; in the assay on Aspergillus niger [2], 10 mm; in the assay on Staphylococcus aureus [3], 13 mm; in the assay on Escherichia coli [5], 12 mm. Moreover, the inhibition in assay [4] was determined as 70%; in assay [6] it was 64%; in [7], 42.5%; in [8] it was 55.2%; in assay [9] it was 26%.
